Activity calls are given as the source filed them. The calls are words filed in the database; no cut-off is given here.
Experiments:
[1] = biological target: PI3-kinase p110-alpha/p85-alpha (Homo sapiens, UniProt P42336); assay: Inhibition of human N-terminal poly-His tagged p110 alpha/ p85alpha expressed in Sf9 Baculovirus system after 20 mins by AlphaScreen assay
[2] = biological target: Serine/threonine-protein kinase mTOR (Homo sapiens, UniProt P42345); assay: Inhibition of recombinant N-terminally GST-tagged mTOR (1360 to 2549 aa) (unknown origin) assessed as inhibition of 27BP1 phosphorylation after 90 mins by TR-FRET assay
[3] = Inhibition of PI3K-mediated Akt S473 phosphorylation in human U87MG cells after 2 hrs by cell-based assay; parameters: species or system U-87MG ATCC; settings: U-87 MG
[4] = Intrinsic clearance in human liver microsomes at 1 uM after 30 mins; type: ADME; settings: read-out: CLH
[5] = Intrinsic clearance in rat liver microsomes at 1 uM after 30 mins; type: ADME; settings: read-out: CLH
[6] = Fraction unbound in Sprague-Dawley rat plasma at 1 mg/kg, iv and 2 mg/kg, po; type: ADME, organism-based
[7] = Clearance in Sprague-Dawley rat at 1 mg/kg, iv and 2 mg/kg, po; type: ADME, organism-based; settings: in vivo
[8] = Terminal half life in Sprague-Dawley rat at 1 mg/kg, iv and 2 mg/kg, po; type: ADME, organism-based; settings: in vivo, read-out: beta t1/2 (converted)
Mus musculus [9] = assay: Inhibition of HGF-induced PI3K-mediated Akt phosphorylation at Ser473 in female CD1 nude mouse liver at 10 to 30 mg/kg, po administered 6 hrs prior HGF treatment measured after 5 mins by electrochemical luminescence immunoassay; type: functional, organism-based
Mus musculus [10] = assay: Inhibition of HGF-induced PI3K-mediated Akt phosphorylation at Ser473 in female CD1 nude mouse liver compound administered orally 6 hrs prior HGF treatment measured after 5 mins by electrochemical luminescence immunoassay; type: functional, organism-based
[11] = Volume of distribution at steady state in Sprague-Dawley rat at 1 mg/kg, iv and 2 mg/kg, po; type: ADME, organism-based; settings: in vivo, read-out: Vdss
[12] = Oral bioavailability in Sprague-Dawley rat at 2 mg/kg; type: ADME, organism-based; settings: in vivo
P-gp = assay: Efflux ratio of permeability across pig LLC-PK1 cells stably over-expressing rat P-gp at 5 uM; type: ADME, cell-based, Sus scrofa

Sequence of PI3-kinase p110-alpha/p85-alpha (P27986 whole entry, the tested form may be a part): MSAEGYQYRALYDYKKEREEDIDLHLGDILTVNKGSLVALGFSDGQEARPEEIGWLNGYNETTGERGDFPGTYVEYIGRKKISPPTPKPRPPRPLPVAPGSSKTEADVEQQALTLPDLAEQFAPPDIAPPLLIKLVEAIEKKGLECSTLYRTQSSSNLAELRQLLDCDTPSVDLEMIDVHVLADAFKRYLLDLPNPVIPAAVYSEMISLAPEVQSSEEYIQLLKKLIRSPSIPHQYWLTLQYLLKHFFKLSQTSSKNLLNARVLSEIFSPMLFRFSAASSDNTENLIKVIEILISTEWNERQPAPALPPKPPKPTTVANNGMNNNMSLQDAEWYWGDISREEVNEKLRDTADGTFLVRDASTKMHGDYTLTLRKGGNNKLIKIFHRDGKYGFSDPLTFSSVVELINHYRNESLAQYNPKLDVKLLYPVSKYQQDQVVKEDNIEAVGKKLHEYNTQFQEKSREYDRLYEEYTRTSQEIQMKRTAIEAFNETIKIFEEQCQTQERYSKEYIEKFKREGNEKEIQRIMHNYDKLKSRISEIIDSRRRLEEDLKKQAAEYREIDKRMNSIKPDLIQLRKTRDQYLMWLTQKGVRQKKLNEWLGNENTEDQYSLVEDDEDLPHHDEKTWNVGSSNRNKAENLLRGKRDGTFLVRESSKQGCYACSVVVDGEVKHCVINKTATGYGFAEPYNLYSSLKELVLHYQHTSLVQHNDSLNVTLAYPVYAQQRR
Sequence of PI3-kinase p110-alpha/p85-alpha (P42336 whole entry, the tested form may be a part): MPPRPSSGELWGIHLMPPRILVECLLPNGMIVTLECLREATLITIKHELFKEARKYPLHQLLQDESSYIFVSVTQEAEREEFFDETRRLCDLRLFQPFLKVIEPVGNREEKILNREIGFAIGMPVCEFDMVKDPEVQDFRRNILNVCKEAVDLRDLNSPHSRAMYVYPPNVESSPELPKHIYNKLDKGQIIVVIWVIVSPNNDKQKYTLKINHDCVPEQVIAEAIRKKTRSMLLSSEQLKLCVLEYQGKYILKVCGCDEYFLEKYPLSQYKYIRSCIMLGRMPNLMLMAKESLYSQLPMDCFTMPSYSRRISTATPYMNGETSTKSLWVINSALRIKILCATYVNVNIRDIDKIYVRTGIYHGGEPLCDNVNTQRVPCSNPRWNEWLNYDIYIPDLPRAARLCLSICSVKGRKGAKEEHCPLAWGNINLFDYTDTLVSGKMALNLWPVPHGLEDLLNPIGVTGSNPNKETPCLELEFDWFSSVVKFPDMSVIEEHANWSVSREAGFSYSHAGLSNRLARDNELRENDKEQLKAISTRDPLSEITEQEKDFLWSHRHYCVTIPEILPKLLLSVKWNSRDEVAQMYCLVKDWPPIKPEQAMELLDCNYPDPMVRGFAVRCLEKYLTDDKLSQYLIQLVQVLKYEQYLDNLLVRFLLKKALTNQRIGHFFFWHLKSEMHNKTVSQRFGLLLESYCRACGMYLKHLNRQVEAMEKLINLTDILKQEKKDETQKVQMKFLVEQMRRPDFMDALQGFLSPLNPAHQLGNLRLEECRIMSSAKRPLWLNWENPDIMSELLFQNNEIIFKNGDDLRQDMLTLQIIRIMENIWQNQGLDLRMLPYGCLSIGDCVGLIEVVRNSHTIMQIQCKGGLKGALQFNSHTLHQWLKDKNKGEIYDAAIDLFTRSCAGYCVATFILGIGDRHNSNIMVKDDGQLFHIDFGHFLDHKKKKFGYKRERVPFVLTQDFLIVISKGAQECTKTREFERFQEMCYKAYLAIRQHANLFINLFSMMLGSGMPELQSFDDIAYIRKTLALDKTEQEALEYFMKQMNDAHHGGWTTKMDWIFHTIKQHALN

Compound	Ki [1]	IC50 [2]	IC50 [3]	microsomal CLint at 1 µM [4]	microsomal CLint at 1 µM [5]	further results
COc1ncc(Nc2ncc([C@H](C)O)cc2-c2nc(C)nc(N)n2)cc1F	0.048 µM	> 25 µM	0.026 µM	< 14 µL/min/mg	< 14 µL/min/mg	–
COc1ncc(Nc2ncc([C@@H](C)O)cc2-c2nc(C)nc(N)n2)cc1F	0.04 µM	> 25 µM	0.02 µM	22 µL/min/mg	45 µL/min/mg	–
COc1ncc(Nc2ncccc2-c2nc(C)nc(N)n2)cc1F	0.048 µM	> 22 µM	–	99 µL/min/mg	36 µL/min/mg	–
COc1ncc(Nc2ncc(CO)cc2-c2nc(C)nc(N)n2)cc1F	0.056 µM	> 15 µM	0.044 µM	–	51 µL/min/mg	–
Cc1nc(N)nc(-c2cc(C(C)(C)O)cnc2Nc2cncc(S(=O)(=O)c3ccccc3)c2)n1	0.224 µM	6.7 µM	–	–	–	–
COc1ncc(Nc2ncc(C3(O)CC3)cc2-c2nc(C)nc(N)n2)cc1F	0.016 µM	3.7 µM	0.018 µM	39 µL/min/mg	79 µL/min/mg	–
COc1ncc(Nc2ncc([C@@H](C)N3CCN(S(C)(=O)=O)CC3)cc2-c2nc(C)nc(N)n2)cc1F	–	–	–	–	20 µL/min/mg	fraction unbound [6]: 0.08; clearance [7]: 7.5 mL/min/kg; half-life [8]: 3.3 h
COc1ncc(Nc2ncc([C@@H](C)CO)cc2-c2nc(C)nc(N)n2)cc1F	0.04 µM	> 15 µM	–	< 14 µL/min/mg	37 µL/min/mg	–
COc1ncc(Nc2ncc(C(C)(C)O)cc2-c2nc(C)nc(N)n2)cc1C(C)C	0.153 µM	> 25 µM	0.414 µM	–	–	–
Cc1nc(N)nc(-c2cc(C(C)(C)O)cnc2Nc2cncc(S(C)(=O)=O)c2)n1	–	> 16 µM	1.16 µM	< 14 µL/min/mg	< 14 µL/min/mg	–
COc1ncc(Nc2ncc(C(O)C(F)(F)F)cc2-c2nc(C)nc(N)n2)cc1F (racemic)	0.03 µM	2.2 µM	–	18 µL/min/mg	34 µL/min/mg	–
Cc1nc(N)nc(-c2cc(C(C)(C)O)cnc2Nc2cncc(F)c2)n1	0.087 µM	2.5 µM	–	< 14 µL/min/mg	15 µL/min/mg	–
COc1ncc(Nc2ncc([C@H](C)CO)cc2-c2nc(C)nc(N)n2)cc1F	0.026 µM	11.1 µM	–	14 µL/min/mg	36 µL/min/mg	–
COc1ncc(Nc2ncc(C(C)(C)O)cc2-c2nc(C)nc(N)n2)cc1C	0.118 µM	7.8 µM	0.049 µM	< 14 µL/min/mg	22 µL/min/mg	–
COc1ncc(Nc2ncc(C(C)(C)O)cc2-c2nc(C)nc(N)n2)cc1F	0.023 µM	7.8 µM	–	< 14 µL/min/mg	23 µL/min/mg	fraction unbound [6]: 0.06; inhibition (Mus musculus [9]): Active; inhibition (Mus musculus [10]): Dose-dependent effect; clearance [7]: 18.3 mL/min/kg; Vd [11]: 1.7 L/kg; half-life [8]: 3.1 h; bioavailability [12]: 37%
COc1cc(Nc2ncc(C(C)(C)O)cc2-c2nc(C)nc(N)n2)cnc1OC	0.03 µM	10.6 µM	0.01 µM	< 14 µL/min/mg	< 14 µL/min/mg	efflux ratio at 5 µM (P-gp): 25; clearance [7]: 21.7 mL/min/kg; Vd [11]: 4.2 L/kg; half-life [8]: 4.8 h
COc1cncc(Nc2ncc(C(C)(C)O)cc2-c2nc(C)nc(N)n2)c1	0.089 µM	2.1 µM	–	17 µL/min/mg	19 µL/min/mg	–
COc1ncc(Nc2ncc(C(C)(C)O)cc2-c2nc(C)nc(N)n2)cc1C(F)(F)F	–	> 25 µM	–	–	–	–
COc1ncc(Nc2ncc(C(C)(C)CO)cc2-c2nc(C)nc(N)n2)cc1F	0.04 µM	> 17 µM	–	34 µL/min/mg	34 µL/min/mg	–
COc1ccc(Nc2ncc(C(C)(C)O)cc2-c2nc(C)nc(N)n2)cn1	0.089 µM	0.79 µM	0.048 µM	< 14 µL/min/mg	19 µL/min/mg	–
CCc1cc(Nc2ncc(C(C)(C)O)cc2-c2nc(C)nc(N)n2)cnc1OC	0.469 µM	15.8 µM	0.47 µM	–	–	–

Source: ChEMBL document CHEMBL3352452, “Phosphoinositide-3-kinase inhibitors: evaluation of substituted alcohols as replacements for the piperazine sulfonamide portion of AMG 511” (Bioorg Med Chem Lett, 2014)
